The record followed here is article PMC4116524, “A virtual screen identified C96 as a novel inhibitor of phosphatidylinositol 3-kinase that displays potent preclinical activity against multiple myeloma in vitro and in vivo” (Oncotarget, 2014).

Structures are written as SMILES. Where “and” joins values, the source holds several entries; their conditions need not be identical. Equal values may be shown once.

What all share (assay type): cell-based
The test system of test [1] is KMS11 cells. Description: Flow cytometric analysis of apoptosis (Annexin V-FITC/PI). The note with it: KMS11, C96 10 μM, 24 hrs; two quadrant values. As for the experimental part: (§1) MM cells treaded with C96 at concentrations from 0 to 20 μM, 24 hrs later, cells were stained with Annexin V-FITC and PI according to the manufacturer's instruction (Sigma, St Louis, MO). Apoptotic cells were measured on a flow cytometer (FACSCalibur, Becton Dickinson) as reported as previously.

Test [2] has as its system OPM2 cells. Described as above. The note with it: OPM2, C96 10 μM, 24 hrs; two quadrant values. As for the experimental part:
as §1

Test [3] has as its system RPMI-8226 (8226) cells. The description is as above. The note with it: 8226, C96 10 μM, 24 hrs; two quadrant values. As for the experimental part: as §1
Test [4] concerns LP1, OPM2 and JJN3 cells. As to the kind of experiment: MM cell growth after starvation/IGF-1 stimulation (MTT). The note with it: 0.5% FBS 12 hrs, IGF-1 100 ng/mL, 24 hrs. The text has this:
Next, we evaluated the effects of C96 on MM cell growth by measuring viable cells after starvation/IGF-1 stimulation in the presence of C96. As shown in Supplemental Figure 2A, IGF-1 stimulated MM cell growth, but it was suppressed by C96. We also examined the effects of C96 on MM cell migration upon IGF-1 stimulation.
MM cells were dispensed in 96-well plates at a density of 8×10^3 cells per well and treated with increasing concentrations of C96 for 72 hrs, and the growth inhibitory effect of C96 on MM cells was assessed by an MTT assay as reported previously. To show the effect of C96 on cell growth in the presence of growth factor IGF-1, MM cells were first maintained in IMDM media containing 0.5% FBS for 12 hrs, followed by C96 treatment alone or in combination with 100 ng/mL of IGF-1. Cells were then incubated for another 24 hrs, relative cell proliferation was analyzed by an MTT assay.
Supplementary Figure S2: C96 inhibits MM cell proliferation and migration in the presence of IGF-1. […] Cells were then incubated for another 24 hr, cell number was analyzed using MTT staining. […] Cells were loaded onto the upper chamber of a transwell, and the lower chamber was filled with IMDM containing agonist IGF-1.After 6 hrs, cells migrating into the lower chamber were counted using a hemacytometer. […]

Test [5] relates to phosphorylation of mTOR, p70S6K and 4E-BP1 in LP1, OPM2 and JJN3 cells. As to the kind of experiment: mTOR signaling pathway, immunoblotting. The note with it: LP1, OPM2, JJN3, 24 hrs, concentration-dependent. As for the experimental part:
Figure 2 C96 inhibits AKT and mTOR signaling (A) LP1 and OPM2 were starved overnight, then treated with C96 at the indicated concentrations, or 100 μM of S14161 for 2 hrs, followed by IGF-1 (100 ng/mL) for 15 min. Cells were collected for the analysis of the expression of p-AKT and total AKT (T-AKT) by immunoblotting. […]
The PI3K/AKT plays a critical role in regulating a myriad of downstream effectors, of which the most prominent ones are mTOR/p70S6K/4E-BP1. […] To examine whether PI3K inhibition led to deregulation of the mTOR signaling pathway, we further measured the changes of mTOR, p70S6K and 4E-BP1 in MM cell lines LP1, OPM2, and JJN3 in the presence of C96.
Cells were treated with or without C96 for 24 hrs before being applied to lysate preparation in a lysis buffer (50 mM Tris-HCI, pH 7.4, 1% NP-40, 0.5% Na-deoxycholate, and 0.1% SDS, 150 mM NaCl, 2 mM EDTA, 2 mM Na3VO4, and 5 mM NaF). […] All immunoblotting signals were further analyzed with Quality One Quality One software (Bio-Rad, Berkeley, CA, USA).
(In general: Immunoblotting shows a protein as a band on a membrane.)

The subject of test [6] is MM cell lines LP1, OPM2, JJN3, OCI-My5, RPMI-8226, U266, KMS11. As to the kind of experiment: Growth inhibition assay (MTT). The note with it: panel of MM cell lines, within 72 hrs. As for the experimental part:
MM cells were dispensed in 96-well plates at a density of 8×10^3 cells per well and treated with increasing concentrations of C96 for 72 hrs, and the growth inhibitory effect of C96 on MM cells was assessed by an MTT assay as reported previously. To show the effect of C96 on cell growth in the presence of growth factor IGF-1, MM cells were first maintained in IMDM media containing 0.5% FBS for 12 hrs, followed by C96 treatment alone or in combination with 100 ng/mL of IGF-1. Cells were then incubated for another 24 hrs, relative cell proliferation was analyzed by an MTT assay. […]
www.impactjournals.com/oncotarget/ Oncotarget, Supplementary Materials 2014 SUPPLEMENTARY FIGURES AND TABLE
Supplementary Figure S1: C96 inhibits multiple myeloma cell proliferation. MM cell lines were treated with C96 with indicated concentrations for 72 hrs, followed by MTT assay. […]

Consider `O=C1NC(=O)C(=CC=Cc2cccs2)C(=O)N1` [C96, 5-(3-(2-thienyl)-2-propen-1-ylidene)-2,4,6(1H,3H,5H)-pyrimidinetrione], for which the “Annexin V/PI flow cytometry quadrant percentages” value in test [1] was 4.28% and 1.91%; in test [2], 42.12% and 21.89%; in test [3] it was 13.50% and 15.66%. Also, the “IGF-1 stimulated MM cell growth” value in test [4] is “suppressed”. Besides, the “phosphorylation levels of mTOR, p70S6K and 4E-BP1” value in test [5] is “downregulated”. The “cell proliferation and viability (MTT)” value in test [6] was “suppressed cell proliferation and reduced cell viability”.
